Test results reported in patent publication EP0231622B1, “Inhibition of the 5-lipoxygenase pathway” (priority 1985, dated 1987).
Marks after values point to notes of the source that are not given here.

Experiments:
5-Lipoxygenase = target: T1, 5-Lipoxygenase (Rattus norvegicus, UniProt P12527); test: 5-HETE production by RBL-1 high speed supernatant; assay type: biochemical; details: for IC50: Table 8A, RBL-1 high speed supernatant
T1 construct: The activities of these enzymes in extracts of RBL-1 cells were assayed; host or cells: RBL-1 cells, disrupted by nitrogen cavitation; 10,000 x g or 100,000 x g supernatant
T1 sequence (P12527 1-673): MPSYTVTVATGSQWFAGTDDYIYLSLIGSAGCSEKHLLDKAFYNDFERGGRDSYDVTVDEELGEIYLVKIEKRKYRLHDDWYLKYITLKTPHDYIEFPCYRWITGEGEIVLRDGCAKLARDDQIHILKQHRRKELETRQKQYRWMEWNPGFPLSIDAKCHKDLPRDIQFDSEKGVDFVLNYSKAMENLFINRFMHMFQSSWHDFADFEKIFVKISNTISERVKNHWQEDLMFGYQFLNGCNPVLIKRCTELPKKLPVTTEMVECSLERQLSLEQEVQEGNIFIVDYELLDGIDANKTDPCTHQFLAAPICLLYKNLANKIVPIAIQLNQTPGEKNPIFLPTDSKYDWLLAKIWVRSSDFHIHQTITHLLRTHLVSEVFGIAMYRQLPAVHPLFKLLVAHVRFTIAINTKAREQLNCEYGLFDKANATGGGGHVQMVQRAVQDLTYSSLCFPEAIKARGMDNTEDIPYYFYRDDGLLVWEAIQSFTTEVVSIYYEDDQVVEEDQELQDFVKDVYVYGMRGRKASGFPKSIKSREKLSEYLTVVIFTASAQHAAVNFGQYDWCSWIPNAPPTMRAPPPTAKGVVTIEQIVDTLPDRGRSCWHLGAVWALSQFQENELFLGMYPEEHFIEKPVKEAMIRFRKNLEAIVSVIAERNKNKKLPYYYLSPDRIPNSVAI
Procedure: (§1) For in vitro experiments, compounds were dissolved at appropriate concentrations in ethanol or DMSO (dimethylsulfoxide) (final concentration <1.0%) and then diluted to final concentrations using the buffers indicated in the text.
(§2) The activities of these enzymes in extracts of RBL-1 cells were assayed using the method of Jakschik and Lee, Nature, 287, 51-52 (1980). RBL-1 cells were obtained from the American Type Culture Collection (#CRL 1378) and were grown at 37°C (5% CO₂ in air) in spinner culture in MEM supplemented with 10% heat inactivated fetal calf serum. Harvested cells were washed with 50 mM sodium phosphate buffer, pH 7.0, containing 1 mM EDTA and 0.1% gelatin, resuspended in fresh buffer (5 x 10⁷ cells/ml) and disrupted by nitrogen cavitation using the Parr bomb at 750 psi for 10 min. The broken cell extract was then centrifuged at 10,000 x g for 20 minutes and the supernatant centrifuged at 100,000 x g for 60 minutes. Aliquots (0.25 mls) of the supernatant were preincubated with or without drugs for 10 min, after which 10 ul CaCl₂ (50 mM) was added and the reaction was initiated with 2.5 ul of 2.5 mM arachidonic acid-1-¹⁴C (final concentration was […]; specific activity 20,000 dpm/nmole). After incubation for 3 min at 37°C, the reaction was terminated by addition of 2 volumes (0.5 ml) ice cold acetone and the sample was allowed to deproteinize on ice for 10 min prior to centrifugation at 1,000 x g for 10 min. The deproteinized supernatant was adjusted to pH 3.5 with 2N formic acid and extracted with 2 volumes of ice cold ethyl acetate. The extracted samples were dried under argon, redissolved in ethyl acetate and applied to Whatman LK5D thin layer chromatography (TLC) plates which were developed using the A-9 solvent system [organic phase of ethyl acetate: 2,2,5-trimethylpentane:acetic acid: water (110:50:20:10)] described by Hamberg and Samuelsson, J. Biol. Chem., 241, 257-263 (1966). Arachidonic acid, 5-HETE, di-HETE and PGD₂ were quantified with a Berthold LB 2832 autoscanner.
(§3) The 5-lipoxygenase and LTA₄ synthetase activities were further studied under the following conditions. An additional centrifugation of the RBL-1 supernatant was run at 100,000 x g for 60 min, to remove the particulate cyclooxygenase activity. Sample incubation was done under conditions similar to those described above, i.e., 2 mM CaCl₂ and 25 uM arachidonic acid-1-¹⁴C, however, with an incubation time of 5 min at […]. Under these conditions, only the 5-lipoxygenase pathway metabolites were detectable. The 5-HETE and di-HETEs were formed at a linear rate, and […] amounts of the arachidonic acid-1-¹⁴C substrate were utilized.

5-LO = target: T2, 5-LO (Rattus norvegicus, UniProt P12527); test: di-HETE production by RBL-1 high speed supernatant; assay type: biochemical; details: Table 9A; di-HETE production by RBL-1 high speed supernatant; read-out: 5-LO IC50
T2 construct: The activities of these enzymes in extracts of RBL-1 cells were assayed; host or cells: RBL-1 cells, disrupted by nitrogen cavitation; 10,000 x g or 100,000 x g supernatant
T2 sequence (P12527 1-673): T1 sequence (P12527 1-673)
Procedure: as §1, §2, §3

[1] = test system: Polymorphonuclear Leukocytes; test: Mouse Carrageenan Peritonitis (PMN infiltration); assay type: in vivo, Balb/c mice; details: Table 3, p.o.
Excerpt: In the following Examples where mice were used, they were male Balb/c mice (20-28 g), and where rats were used, they were male Lewis rats (180-210 g). All mice and rats were obtained from Charles River Breeding Laboratories, Kingston, N.Y. Within a single experiment, mice and rats were sex and age matched.
The compounds of Formula (IA) were used either as the free base or in the appropriate salt form. Levamisole was used as the hydrochloride salt. The compounds were homogenized in 0.5% tragacanth. Compounds were administered by gavage at the indicated dose in a final volume of 10 ml/kg. Nordihydroguaiaretic acid (NDGA) was solubilized in dimethylacetamide and diluted with olive oil for subcutaneous administration.
Mice were pretreated with either the test compound or vehicle one hour before the intraperitoneal injection of a 1.0% carrageenan suspension in saline (0.2 ml/ mouse). Mice were sacrificed by cervical dislocation two hours after injection, and 3.0 ml of phosphate buffered saline, without Ca⁺⁺ or Mg⁺⁺, was injected into the peritoneum. Following massage, a 2.0 ml aliquot of the lavage fluid was removed, and the total cell count determined on a Coulter counter and differential cell count determined by microscopic examination of Giesma-stained slides.

Compound | IC50 (5-Lipoxygenase) | IC50 (5-LO) | also measured
CSc1ccc(-c2nc3n(c2-c2ccc(SC)cc2)CCS3)cc1 [Compound 32] | > 10 µM | > 100 µM | inhibition at 10 µM (5-Lipoxygenase; read-out: % inhibition at 10 μM, 10 μM, 5-HETE production, footnotes of Table 8A): 35 to 40%
c1cc(-c2nc3n(c2-c2ccc4c(c2)OCO4)CCS3)ccn1 [Compound 7, 6-(4-pyridyl)-5-(3,4-methylenedioxyphenyl)-2,3-dihydroimidazo[2,1-b]thiazole] | 10 µM | 10 µM | 
c1ccc([C@H]2CN3CCSC3=N2)cc1 [Levamisole] |  |  | % Change ([1]; 100 mg/kg): -37^b %; PMN x 10⁻⁵/ml (mean ± S.D.) ([1]; 100 mg/kg): 5.88 ± 2.70 x 10⁻⁵/ml
c1cc(-c2c(-c3ccc4c(c3)OCO4)nc3n2CCS3)ccn1 [Compound 5, 5-(4-pyridyl)-6-(3,4-methylenedioxyphenyl)-2,3-dihydroimidazo[2,1-b]thiazole] | 10 µM | 10 µM | 
Fc1ccc(-c2nc3n(c2-c2ccccn2)CCS3)cc1 [Compound 23, 5-(2-pyridinyl)-6-(4-fluorophenyl)-2,3-dihydroimidazo[2,1-b]thiazole] | 90 µM | 42 µM | 
CC(=O)OC[C@H]1O[C@@H]([S-])[C@H](OC(C)=O)[C@@H](OC(C)=O)[C@@H]1OC(C)=O.CCP(CC)CC.[Au+] [Auranofin] |  |  | PMN x 10⁻⁵/ml (mean ± S.D.) ([1]; 2 (mg Au/kg)): 7.50 ± 1.57 x 10⁻⁵/ml
[O-][S+]1CCn2c1nc(-c1ccc(F)cc1)c2-c1ccc(F)cc1 (centres unmarked) [Compound 30] | 70 µM | 60 µM | 
N#Cc1ccc(-c2nc3n(c2-c2ccc(C#N)cc2)CCS3)cc1 [Compound 13, 5,6-bis(4-cyanophenyl)-2,3-dihydroimidazo[2,1-b]thiazole] | 16 µM | 15 µM | 
O=S1(=O)CCn2c1nc(-c1ccc(F)cc1)c2-c1ccncc1 [Compound 29, 6-(4-fluorophenyl)-5-(4-pyridyl)-2,3-dihydroimidazo[2,1b]thiazole-1,1-dioxide] | 100 µM | > 100 µM | 
COc1ccc(-c2nc3n(c2-c2ccncc2)CCS3)cc1 [Compound 18] | 5.4 µM | 1.9 µM | 
Fc1ccc(-c2nc3n(c2-c2ccc(F)cc2)CCS3)cc1 [Compound 19] | 8.6 µM | 5 µM | 
c1cc(N2CCCC2)ccc1-c1nc2n(c1-c1ccc(N3CCCC3)cc1)CCS2 [Compound 3, 5,6-bis(4-(1-pyrrolidinyl)phenyl)-2,3-dihydroimidazo[2,1-b] thiazole] | 0.23 µM | 0.1 µM | 
O=S1(=O)CCn2c1nc(-c1ccc(F)cc1)c2-c1ccc(F)cc1 [Compound 31] | 33 µM | < 33 µM | 
c1cc(N2CCCCC2)ccc1-c1nc2n(c1-c1ccc(N3CCCCC3)cc1)CCS2 [Compound 4, 5,6-bis(4-(1-piperidinyl)phenyl)-2,3-dihydroimidazo[2,1-b] thiazole] | 1.2 µM | 0.6 µM | 
FC(F)(F)c1ccc(-c2nc3n(c2-c2ccc(C(F)(F)F)cc2)CCS3)cc1 [Compound 15] | 10 µM | 10 µM | 
COc1ccc(-c2nc3n(c2-c2ccc(OC)cc2)CCS3(=O)=O)cc1 [Compound 43] | 10 µM | 10 µM | 
c1cc2c(cc1-c1nc3n(c1-c1ccc4c(c1)OCO4)CCS3)OCO2 [Compound 16] | 3.8 µM | 1.5 µM | 

Compound | IC50 (5-Lipoxygenase) | IC50 (5-LO) | also measured
c1cc(-c2nc3n(c2-c2ccncc2)CCS3)ccn1 [Compound 11, 5,6-Bis(4-pyridyl)-2,3-dihydroimidazo(2,1-b)thiazole] | 110 µM | 33 µM | 
c1cc(-c2c(-c3ccc(N4CCCC4)cc3)nc3n2CCS3)ccn1 [Compound 25, 5-(4-pyridyl)-6-(4-(pyrrolidin-1-yl)phenyl)-2,3-dihydroimidazo[2,1-b]thiazole] | 0.5 µM | 0.5 µM | 
CCN(CC)c1ccc(-c2nc3n(c2-c2ccc(N(CC)CC)cc2)CCS3)cc1 [Compound 9, 5,6-bis(4-N,N-diethylaminophenyl)-2,3-dihydroimidazo [2,1-b]thiazole] | 0.35 µM | 0.16 µM | 
COc1ccc(-c2nc3n(c2-c2ccc(OC)cc2)CCCS3)cc1 [Compound 20] | 5.6 µM | 5.6 µM | 
Fc1ccc(-c2c(-c3ccncc3)nc3n2CCS3)cc1 [Compound 12] | 16 µM | 17 µM | 
CN(C)c1ccc(-c2nc3n(c2-c2ccc(F)cc2)CCS3)cc1 [Compound 6, 6-(4-N,N-dimethylaminophenyl)-5-(4-fluorophenyl)-2,3-dihydroimidazo[2,1-b]thiazole] | 0.8 µM | 0.6 µM | 
COc1ccc(-c2nc3n(c2-c2ccc(OC)cc2)CCC3)cc1 [Compound 22] | 4 µM |  | 
Fc1ccc(-c2c(-c3ccccn3)nc3n2CCS3)cc1 [Compound 24, 5-(4-fluorophenyl)-6-(2-pyridinyl)-2,3-dihydroimidazo[2,1-b]thiazole] | 37 µM | 20 µM | 
Fc1ccc(-c2nc3n(c2-c2ccc(F)cc2)CCC3)cc1 [Compound 8, 2,3-Bis(4-fluorophenyl)-6,7-dihydro-5H-pyrrolo[1,2-a]imidazole] | 12 µM | 8 µM | 
[O-][S+]1CCn2c1nc(-c1ccc(F)cc1)c2-c1ccncc1 (centres unmarked) [Compound 28, 6-(4-fluorophenyl)-5-(4-pyridyl)-2,3-dihydroimadazo-[2,1-b]thiazole-1-oxide] | 1000 µM | 1000 µM | 
Nc1ccc(-c2nc3n(c2-c2ccc(N)cc2)CCS3)cc1 [Compound 45, 5,6-bis(4-aminophenyl)-2,3-dihydroimidazo[2,1-b]thiazole] | 8 µM | 6 µM | 
CC(=O)Nc1ccc(-c2nc3n(c2-c2ccncc2)CCS3)cc1 [Compound 38, 5-(4-pyridyl)-6-(4-acetamidophenyl)-2,3-dihydroimidazo [(2,1-b)]thiazole] | 69 µM | 30 µM | 
COc1ccc(-c2nc3n(c2-c2ccc(OC)cc2)CCS3)cc1 [Compound 21] | 3.9 µM | 2.8 µM | 
COc1ccc(-c2nc3n(c2-c2ccc(F)cc2)CCS3)cc1 [Compound 14] | 2 µM | 0.6 µM | 
CCCNc1ccc(-c2nc3n(c2-c2ccncc2)CCS3)cc1 [Compound 2, 6-(4-(1-Propylamino)phenyl)-5-(4-pyridyl)-2,3-dihydroimidazo[2,1-b]thiazole] | 12 µM | 7 µM | 
CCNc1ccc(-c2nc3n(c2-c2ccc(NCC)cc2)CCS3)cc1 [Compound 17] | 0.1 µM | 0.1 µM | 
